“Also recorded” adds a separate entry of the source.
Columns and labels:
reticulated platelets = experiment: Reticulated platelet labeling (thiazole orange) after ABT-737; format: in vivo, mouse; conditions: thiazole orange staining after a single dose
Procedure: Animals were bled 2-24 h afterwards and platelet counts determined. […] (B) Platelet recovery after a single dose of ABT-737. Platelet counts (blue symbols; left axis) were determined 2-96 h after a single dose of ABT-737 (red arrow). […] Orange symbols represent serum TPO levels (right axis). (C) Cyclical acute thrombocytopaenia triggered by ABT-737. Platelet counts were determined before and 8 h after a single dose of ABT-737 (red arrows) given at weekly intervals. […] During recovery, baseline counts drifted upwards. (D) ABT-737 acts selectively on aged platelets. […] (E) Synchronizing platelets. […] During recovery, the newly synthesized younger platelets are larger as indicated by the increased mean platelet volume (blue symbols; right axis). (F) Young platelets are resistant to ABT-737. Wild type C57BL/6 mice were treated with APS, and then injected with ABT-737 (red arrows) either 2 or 7 days afterwards. Absolute platelet counts and the % of reticulated platelets were measured. The top panels show representative flow cytometric profiles following thiazole orange staining before or after ABT-737 injections. The bottom panels show platelet counts prior to or 2 h post ABT-737 injection. Data in (B), (C), (E) and (F) represent means±SD of 3-6 mice at each time point.
Staining of reticulated platelets was performed using thiazole orange. […]

[1] = tested on: tumor cell lines derived from small cell lung cancers or lymphomas; conditions: small cell lung cancer or lymphoma derived lines; Oltersdorf et al., 2005; cited from earlier work
Mcl-1 null MEF cells = experiment: Assay of Mcl-1 null MEF cells (rescue from ABT-737-induced killing, CellTitre-Blue viability); format: cell-based, mouse; conditions: Mcl-1^(-/-) MEFs
Procedure: In summary, cells are split on day one in order to have them at a confluency of 60-80% on day two. On day two, the cells are seeded out into assay plates at a density that will ensure they are not confluent by day four of the assay. The assay plates are incubated at room temperature for 20-60 minutes before being transferred to 37° C. so that edge effects are minimized. For the same reason, assay plates are never stacked on top of each other in the incubator. On day three the cells are treated first with either Q-VD or with WEHI library compound. The cells are incubated for a 2 hour period in the presence of the library compounds and are then treated with ABT-737. […] After four hours the level of resorufin is measured.
The protocol for day one was repeated up to the point where the cells were pelleted and the supernatant aspirated off. […] The cells were vortexed and then counted using a haemocytometer. The dilution necessary to achieve a density of 2×10^4 cells ml^−1 (1000 cells per well per 50 μl media) in the required volume was calculated and the dilution performed in 1% FCS FMA. […]
CellTitre-Blue™ was warmed to 37° C. and 10 μl was then added to each well of the assay plates using the Multidrop. The plates were returned to 37° C. for 4 hours before being loaded into the EnVision plate reader. […]

[2] = tested on: human platelet rich plasma; experiment: Platelet aggregometry on human platelet rich plasma; format: cell-based
Procedure: Platelet aggregometry performed on human platelet rich plasma (250×10^9/L platelets) pre-incubated for 1 h with 1 μM ABT-737 (green line) or not (red) before stimulation with (A) collagen (4 μg/ml) or (B) ADP (10 μM).
Whole blood was collected in sodium citrate (3.2%) and platelet rich plasma obtained by centrifugation at 800 rpm for 12 min at room temperature. Platelet poor plasma was then obtained by centrifugation of remaining blood at 3,000 rpm for 15 min at room temperature. Platelet count was adjusted to 250×10^9/L using platelet poor plasma. Diluted platelet rich plasma was placed in an aggregometer cuvette warmed to 37° C. and stirred whilst light transmission through the plasma was measured in a 4 channel platelet aggregometer. After baseline measurements were obtained, ADP or Collagen (both from Edward Keller) was added to induce aggregation.

For `CN(C)CC[C@H](CSc1ccccc1)Nc1ccc(S(=O)(=O)NC(=O)c2ccc(N3CCN(Cc4ccccc4-c4ccc(Cl)cc4)CC3)cc2)cc1[N+](=O)[O-]` [ABT-737], the “proportion of reticulated platelets post ABT-737” value (reticulated platelets) is given as “transient increase; also recorded: increased proportion”, the “efficacy against tumor cell lines” value [1] is given as “single agent efficacy” and the “induction of apoptosis in Mcl-1^(-/-) cells” value (Mcl-1 null MEF cells) is given as “Apoptosis is induced”. The “responses to other agonists (Epinephrine, Arachidonic Acid, Ristocetin)” value ([2]; 1 μM ABT-737 (data not shown)) was “did not alter responses” and the “platelet activation / aggregation in response to collagen or ADP” value ([2]; pre-incubated 1 h with 1 μM ABT-737, collagen 4 μg/ml or ADP 10 μM) was “did not trigger platelet activation or adversely impact upon the ability of platelets to aggregate; also recorded: did not induce platelet aggregation or affect that with agonists”.
